According to the CheMixHub viscosity set:

Experiment: xn = mol fraction of the nth substance listed

CC12CC3CC(C1)CC(C)(C3)C2 + CCCCCCCCCCC
viscosity [mPa·s], 100 kPa
Details | x1 = 0.1005 | x1 = 0.2002 | x1 = 0.2999 | x1 = 0.4004 | x1 = 0.4999 | x1 = 0.5996 | x1 = 0.7003 | x1 = 0.8 | x1 = 0.8999
293.15 K | 1.278 | 1.376 | 1.491 | 1.628 | 1.805 | 2.024 | 2.319 | 2.683 | 3.141
298.15 K | 1.173 | 1.273 | 1.385 | 1.492 | 1.639 | 1.831 | 2.087 | 2.418 | 2.813
303.15 K | 1.083 | 1.162 | 1.25 | 1.37 | 1.501 | 1.676 | 1.901 | 2.19 | 2.531
308.15 K | 1.003 | 1.071 | 1.153 | 1.259 | 1.376 | 1.53 | 1.735 | 1.98 | 2.299
313.15 K | 0.936 | 0.998 | 1.074 | 1.166 | 1.272 | 1.409 | 1.589 | 1.817 | 2.083
318.15 K | 0.872 | 0.939 | 1.006 | 1.084 | 1.172 | 1.297 | 1.461 | 1.665 | 1.911
323.15 K | 0.815 | 0.871 | 0.94 | 1.008 | 1.097 | 1.207 | 1.348 | 1.532 | 1.744

BrC(Br)Br + Brc1ccccc1
viscosity [mPa·s]
Details | x1 = 0.1693 | x1 = 0.1837 | x1 = 0.3354 | x1 = 0.3369 | x1 = 0.5411 | x1 = 0.5417 | x1 = 0.6863 | x1 = 0.6869 | x1 = 0.8606 | x1 = 0.871
298 K, 101.3 kPa | – | 1.207 | – | 1.333 | – | 1.51 | – | 1.627 | 1.769 | –
318 K, 101.33 kPa | 0.9504 | – | 1.051 | – | 1.179 | – | 1.272 | – | – | 1.396

O=S(=O)([N-]S(=O)(=O)C(F)(F)F)C(F)(F)F.OCCNCCO.[Li+] + O
viscosity [mPa·s], 101 kPa
Details | 313.15 K | 318.15 K | 323.15 K
x1 = 0.03 | 2.3 | 1.83 | 1.52
x1 = 0.0601 | 4.57 | 3.78 | 3.28
x1 = 0.0999 | 13.16 | 10.06 | 7.95
x1 = 0.1922 | 61.51 | 40.94 | 28.08
x1 = 0.2941 | 156.6 | 98.53 | 65.24
x1 = 0.4028 | 299.2 | 187.7 | 123.7
x1 = 0.4989 | 451.2 | 285 | 192.2
x1 = 0.5999 | 629.9 | 408.1 | 281.1
x1 = 0.7015 | 835.5 | 557.5 | 393.6
x1 = 0.803 | 1078 | 736.7 | 530
x1 = 0.9011 | 1370 | 952.3 | 694.7

BrC(Br)Br + CN(C)C=O
Details | viscosity [mPa·s]
298 K, 101.3 kPa, x1 = 0.1418 | 1.075
298 K, 101.3 kPa, x1 = 0.2704 | 1.355
298 K, 101.3 kPa, x1 = 0.463 | 1.794
298 K, 101.3 kPa, x1 = 0.6145 | 2.007
298 K, 101.3 kPa, x1 = 0.7144 | 2.037
298 K, 101.3 kPa, x1 = 0.818 | 2.016
298.15 K, 101 kPa, x1 = 0.1458 | 1.048
298.15 K, 101 kPa, x1 = 0.1971 | 1.237
298.15 K, 101 kPa, x1 = 0.2942 | 1.486
298.15 K, 101 kPa, x1 = 0.3961 | 1.703
298.15 K, 101 kPa, x1 = 0.4962 | 1.956
298.15 K, 101 kPa, x1 = 0.5972 | 2.102
298.15 K, 101 kPa, x1 = 0.6959 | 2.122
298.15 K, 101 kPa, x1 = 0.7985 | 2.147
298.15 K, 101 kPa, x1 = 0.8992 | 2.074
303.15 K, 101 kPa, x1 = 0.1458 | 0.9843
303.15 K, 101 kPa, x1 = 0.1971 | 1.162
303.15 K, 101 kPa, x1 = 0.2942 | 1.371
303.15 K, 101 kPa, x1 = 0.3961 | 1.567
303.15 K, 101 kPa, x1 = 0.4962 | 1.793
303.15 K, 101 kPa, x1 = 0.5972 | 1.927
303.15 K, 101 kPa, x1 = 0.6959 | 1.953
303.15 K, 101 kPa, x1 = 0.7985 | 1.966
303.15 K, 101 kPa, x1 = 0.8992 | 1.934
308.15 K, 101 kPa, x1 = 0.1458 | 0.9091
308.15 K, 101 kPa, x1 = 0.1971 | 1.066
308.15 K, 101 kPa, x1 = 0.2942 | 1.267
308.15 K, 101 kPa, x1 = 0.3961 | 1.443
308.15 K, 101 kPa, x1 = 0.4962 | 1.643
308.15 K, 101 kPa, x1 = 0.5972 | 1.765
308.15 K, 101 kPa, x1 = 0.6959 | 1.801
308.15 K, 101 kPa, x1 = 0.7985 | 1.839
308.15 K, 101 kPa, x1 = 0.8992 | 1.797
313.15 K, 101 kPa, x1 = 0.1458 | 0.8479
313.15 K, 101 kPa, x1 = 0.1971 | 1
313.15 K, 101 kPa, x1 = 0.2942 | 1.173
313.15 K, 101 kPa, x1 = 0.3961 | 1.329
313.15 K, 101 kPa, x1 = 0.4962 | 1.513
313.15 K, 101 kPa, x1 = 0.5972 | 1.622
313.15 K, 101 kPa, x1 = 0.6959 | 1.66
313.15 K, 101 kPa, x1 = 0.7985 | 1.705
313.15 K, 101 kPa, x1 = 0.8992 | 1.679
318 K, 101.33 kPa, x1 = 0.1317 | 0.819
318 K, 101.33 kPa, x1 = 0.2705 | 1.046
318 K, 101.33 kPa, x1 = 0.4636 | 1.313
318 K, 101.33 kPa, x1 = 0.6142 | 1.471
318 K, 101.33 kPa, x1 = 0.7204 | 1.518
318 K, 101.33 kPa, x1 = 0.8296 | 1.519

CCC(C)(C)OC + CCCCCO
298.15 K, 101.33 kPa
Details | viscosity [mPa·s]
x1 = 0.0219 | 3.286
x1 = 0.0388 | 3.133
x1 = 0.0752 | 2.891
x1 = 0.1143 | 2.511
x1 = 0.1631 | 2.192
x1 = 0.211 | 1.93
x1 = 0.2721 | 1.651
x1 = 0.3347 | 1.417
x1 = 0.3464 | 1.374
x1 = 0.385 | 1.26
x1 = 0.4353 | 1.125
x1 = 0.4908 | 1.003
x1 = 0.5534 | 0.886
x1 = 0.6141 | 0.789
x1 = 0.6759 | 0.71
x1 = 0.7266 | 0.652
x1 = 0.8027 | 0.579
x1 = 0.8732 | 0.521
x1 = 0.9484 | 0.469
x2 = 0.0064 | 0.441

C=Cc1ccccc1 + CCCCCCCC
Details | viscosity [mPa·s]
293.15 K, 101 kPa, x1 = 0.622 | 0.585
298.15 K, 101 kPa, x1 = 0.622 | 0.55
298.15 K, 101.33 kPa, x1 = 0.1009 | 0.512
298.15 K, 101.33 kPa, x1 = 0.1995 | 0.514
298.15 K, 101.33 kPa, x1 = 0.331 | 0.516
298.15 K, 101.33 kPa, x1 = 0.3985 | 0.522
298.15 K, 101.33 kPa, x1 = 0.4971 | 0.535
298.15 K, 101.33 kPa, x1 = 0.5989 | 0.558
298.15 K, 101.33 kPa, x1 = 0.7005 | 0.587
298.15 K, 101.33 kPa, x1 = 0.8009 | 0.616
298.15 K, 101.33 kPa, x1 = 0.8988 | 0.657
303.15 K, 101 kPa, x1 = 0.622 | 0.52
303.15 K, 101.33 kPa, x1 = 0.1009 | 0.481
303.15 K, 101.33 kPa, x1 = 0.1995 | 0.485
303.15 K, 101.33 kPa, x1 = 0.331 | 0.488
303.15 K, 101.33 kPa, x1 = 0.3985 | 0.495
303.15 K, 101.33 kPa, x1 = 0.4971 | 0.5
303.15 K, 101.33 kPa, x1 = 0.5989 | 0.524
303.15 K, 101.33 kPa, x1 = 0.7005 | 0.552
303.15 K, 101.33 kPa, x1 = 0.8009 | 0.575
303.15 K, 101.33 kPa, x1 = 0.8988 | 0.617
308.15 K, 101.33 kPa, x1 = 0.1009 | 0.461
308.15 K, 101.33 kPa, x1 = 0.1995 | 0.462
308.15 K, 101.33 kPa, x1 = 0.331 | 0.464
308.15 K, 101.33 kPa, x1 = 0.3985 | 0.467
308.15 K, 101.33 kPa, x1 = 0.4971 | 0.476
308.15 K, 101.33 kPa, x1 = 0.5989 | 0.495
308.15 K, 101.33 kPa, x1 = 0.7005 | 0.521
308.15 K, 101.33 kPa, x1 = 0.8009 | 0.55
308.15 K, 101.33 kPa, x1 = 0.8988 | 0.581
313.15 K, 101 kPa, x1 = 0.3202 | 0.43
313.15 K, 101 kPa, x1 = 0.622 | 0.465
323.15 K, 101 kPa, x1 = 0.622 | 0.418
323.15 K, 101 kPa, x1 = 0.8145 | 0.462
323.15 K, 101 kPa, x1 = 0.9081 | 0.479

CC(C)(C)N + O=C1CCCCC1
298.15 K, 101 kPa
Details | viscosity [mPa·s]
x2 = 0.0765 | 0.525
x2 = 0.157 | 0.607
x2 = 0.2421 | 0.702
x2 = 0.3319 | 0.787
x2 = 0.427 | 0.893
x2 = 0.5278 | 1.021
x2 = 0.6349 | 1.172
x2 = 0.7488 | 1.373
x2 = 0.8702 | 1.644

CC(C)(C)N + CCCCOC(C)=O
303.15 K, 101 kPa
Details | viscosity [mPa·s]
x1 = 0.1472 | 0.6309
x1 = 0.229 | 0.6186
x1 = 0.3626 | 0.5943
x1 = 0.435 | 0.5852
x1 = 0.5578 | 0.5545
x1 = 0.6566 | 0.5313
x1 = 0.7339 | 0.5091
x1 = 0.8272 | 0.4861

CCN(CC)CCO.Cl + OCCO
viscosity [mPa·s], 101 kPa
Details | 293.15 K | 298.15 K | 303.15 K | 308.15 K | 313.15 K | 318.15 K | 323.15 K
x1 = 0.25 | 37.6 | – | 29.6 | – | 23.6 | – | 19.1
x1 = 0.333 | – | 50.45 | 40.68 | 32.04 | 26.28 | 21.97 | 18.51

CCCCCCCCO + CC1COC(=O)O1
298.15 K, 101 kPa
Details | viscosity [mPa·s]
x2 = 0.0305 | 5.992
x2 = 0.0991 | 5.607
x2 = 0.1708 | 5.253
x2 = 0.2441 | 4.915
x2 = 0.3107 | 4.627
x2 = 0.4055 | 4.245
x2 = 0.4882 | 3.938
x2 = 0.5632 | 3.679
x2 = 0.6277 | 3.469
x2 = 0.7091 | 3.222
x2 = 0.7824 | 3.015
x2 = 0.8415 | 2.857
x2 = 0.9046 | 2.698
x2 = 0.971 | 2.54
